Results taken from patent US20050084500A1, “Growth promoter composition for animals” (priority 2001, published 2005).
Where two headings read alike, the source gives them in different places.

Tests used:
[1] = type: in vivo; details: for FCR: feed conversion ratio per trial group; for FCR / Mortality: piglets 7-20 kg; for Mortality: whole trial; for Number of veterinary treatments: sum of all treatments performed on the animals during the total period of the trial; for Daily growth: weaned piglets, 7-20 kg, fed ad libitum
Source text: The present example relates to the effects of a composition according to the invention comprising a fungus at and least one growth promoting element on piglet performance of piglets in the phase 7-20 kg.
Commercial available weaning and starter feeds were used. During the first 2 weeks, a weaning feed was given to the piglets. From the third week till the end of the trial, i.e. at an average weight of 20 kg, the piglets received a starter feed. The trial feeds used are illustrated in table 2. During the whole trial period the piglets were fed ad libitum. The piglets under study were 120 weaned barrows and sows, with an age of 28 days at weaning. In the stable, 12 pens were present which contained each 10 piglets. For each trial, 3 replicates of 10 piglets were used. Ventilation and heating was automatically controlled. In each pen, 1 drinking nipple was present for water supply. Piglets were distinguished and weighed individually. They were allocated randomly to the different groups so that the average weight of each group was equal. A total of 120 animals was monitored. The following parameters were monitored during the trial: • the feed intake per trial group (measured at the end of the trial) • the weight of the individual animals (was measured at the beginning and at the end of the trial) • the feed conversion ratio per trial group was calculated • veterinary treatments and • mortality.

[2] = Influence of Lentinus edodes on the zootechnic performance of poultry (feeding trial); type: in vivo, chickens; details: Lentinus edodes at 0.5% of feed where present; for FCR: feed conversion ratio, chickens, end of trial; for Daily growth: one day old chickens, feed ad libitum
Source text: 20×40 one day old chickens were provided with following feeds: control feed, control feeds supplemented with a growth-promoting component, control feed supplemented with 0.5% fungi (Lentinus edodes) and control feed supplemented with a growth-promoting component and with 0.5% fungi (Lentinus edodes). As used herein, the term “control feed” refers to a standard animal feed for meat-producing animals, i.e. feed that can be used in the animal husbandry field and is suitable to be fed to meat-producing animals to supply part or all of the meat-producing animal's nutrient requirements. Water and feed were supplied ad libitum. At the end of the trial, chickens were weighed and feed conversion ratio's were determined (Table 1). Microbial contents in the gastrointestinal tract were determined by plate counting.

Molecule | FCR [1] | Mortality [1] | Number of veterinary treatments [1] | Daily growth [1] | FCR [2] | Daily growth [2]
COC[C@H]1O[C@@H](OC2OC[C@@H]3O[C@]4(O[C@H]3[C@H]2OC(=O)C(C)C)O[C@H](C)[C@@](O)(C(C)=O)[C@@H]2OCO[C@H]24)[C@@H](OC)[C@@H](O)[C@@H]1O[C@@H]1O[C@H](C)[C@H](OC)[C@H](O[C@H]2C[C@@]3(C)OC4(C[C@@H](O)[C@H](O[C@H]5C[C@@H](O)[C@H](OC(=O)c6c(C)c(Cl)c(O)c(Cl)c6OC)[C@@H](C)O5)[C@@H](C)O4)O[C@@H]3[C@@H](C)O2)[C@H]1O (stereo partly drawn) [control + Avilamycin, Avilamycin] | 1.65 | 3.3% | 25 | 365 g/pig/day | 1.59 | 53.99 g/chicken/day
CC[C@@H](C(=O)[C@@H](C)[C@@H](O)[C@H](C)[C@@H]1O[C@@H]([C@@H](CC)C(=O)O)CC[C@@H]1C)[C@H]1O[C@]2(C=C[C@@H](O)[C@]3(CC[C@@](C)([C@H]4CC[C@](O)(CC)[C@H](C)O4)O3)O2)[C@H](C)C[C@@H]1C [control + Salinomycine, Salinomycine] | 1.70 | 6.6% | 26 | 362 g/pig/day | 1.60 | 54.06 g/chicken/day
inulin [control + inulin] | 1.78 | 10% | 32 | 330 g/pig/day | 1.65 | 51.09 g/chicken/day
OP(O)O [control + phophorous acid, phophorous acid] | 1.69 | 6.6% | 30 | 346 g/pig/day | 1.56 | 52.23 g/chicken/day
O=CO [control + formic acid, formic acid] | 1.69 | 10.0% | 28 | 351 g/pig/day | 1.55 | 52.18 g/chicken/day
